These compounds were tested on IL-1β production in PMA-differentiated THP-1 cells (assay: IL-1β production in PMA-differentiated THP-1 cells stimulated with gramicidin (hTHP-1 assay, HTRF readout; Procedures 1-3)). Settings: Homo sapiens, THP-1, hTHP-1 assay containing 2% fetal bovine serum; average; class symbols; read-out: hTHP-1 IC50 (Average IC50 of compounds in hTHP-1 assay).
Assay type: cell-based, human
Method in brief: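 PMA-differentiated (20 ng/ml, 16-18 h) THP-1 cells in RPMI with 2% FBS, 50,000 cells/well, preincubated 1 h with compound (final 0.0017-100 μM, 0.37% DMSO), then stimulated with 5 μM gramicidin for 2 h. IL-1β in cell-free supernatant measured by HTRF (620/668 nm).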

SMILES | IC50 [µM]
CC(C)c1cc(C#N)cc(C(C)C)c1NC(=O)N=S(N)(=O)c1ccc(S(C)(=O)=O)cc1 (stereo not shown) [Example 73, N′-((4-cyano-2,6-diisopropylphenyl)carbaoyl)-4-(methylsulfonyl)benzenesulfonim idamide] | 1 to 5
CCc1ccc2cnn(C)c2c1NC(=O)N=S(N)(=O)c1ncc(C(C)(C)O)s1 (single isomer, unassigned) [Example 328, (R) or (S)-N′-((6-ethyl-1-methyl-1H-indazol-7-yl)carbamoyl)-5-(2-hydroxypropan-2-yl)thiazole-2-sulfonimidamide] | 1 to 5
CC(C)c1cc(C#N)cc(C(C)C)c1NC(=O)N=S(N)(=O)c1ccc(S(C)(=O)=O)cc1 (single isomer, unassigned) [Example 196, (S)- or (R)-N′-((4-cyano-2,6-diisopropylphenyl)carbamoyl)-4-(methylsulfonyl)-benzenesulfonimidamide] | 5 to 30
CC(C)c1cc(C#N)cc(C(C)C)c1NC(=O)NS(=N)(=O)c1sc(C(C)(C)O)nc1CO (stereo not shown) [Example 70, N-((4-cyano-2,6-diisopropylphenyl)carbaoyl)-4-(hydroxymethyl)-2-(2-hydroxypropan-2-yl)thiazole-5-sulfonimidamide] | 1 to 5
CCc1ccc2cn[nH]c2c1NC(=O)N=S(N)(=O)c1cnc(C(C)(C)O)s1 (single isomer, unassigned) [Example 326, (R) or (S)-N′-((6-ethyl-1H-indazol-7-yl)carbamoyl)-2-(2-hydroxypropan-2-yl)thiazole-5-sulfonimidamide] | 5 to 30
Cc1cc(C(C)(C)O)ccc1S(N)(=O)=NC(=O)Nc1c(C(C)C)cc(OC(F)F)cc1C1CC1 (single isomer, unassigned) [Example 119, (S)- or (R)-N′-(2-cyclopropyl-4-(difluoromethoxy)-6-isopropylphenylcarbamoyl)-4-(2-hydroxypropan-2-yl)-2-methylbenzenesulfonimidamide] | 5 to 30
Cc1cc(C(C)(C)O)ccc1S(N)(=O)=NC(=O)Nc1c(C(C)C)cc(OC(F)F)cc1C1CC1 (stereo not shown) [Example 29, N′-(2-cyclopropyl-4-(difluoromethoxy)-6-isopropylphenylcarbamoyl)-4-(2-hydroxypropan-2-yl)-2-methylbenzenesulfonimidamide] | 5 to 30
CC(C)c1cc(F)cc(C(C)C)c1NC(=O)N=S(N)(=O)c1ccc(C(C)(C)O)cc1 (single isomer, unassigned) [Example 83, (S)- or (R)-N′-(4-fluoro-2,6-diisopropylphenylcarbamoyl)-4-(2-hydroxypropan-2-yl)benzenesulfonimidamide] | 1 to 5

The remaining lines, values ahead:

IC50 [µM] | SMILES
1 to 5 | CC(C)(O)c1cccc(S(N)(=O)=NC(=O)Nc2c3c(cc4c2CCC4)CCC3)c1 (stereo not shown) [Example 46, N′-(1,2,3,5,6,7-hexahydro-s-indacen-4-ylcarbamoyl)-3-(2-hydroxypropan-2-yl)benzenesulfonimidamide]
1 to 5 | CC(C)(O)c1ncc(S(N)(=O)=NC(=O)Nc2c3c(cc4c2CCC4O)CCC3)s1 (stereo not shown) [Example 230]
1 to 5 | NS(=O)(=NC(=O)Nc1c2c(cc3c1CCC3)CCC2)c1ccc(CN2CCC(F)(F)C2)cc1 (stereo not shown) [Example 235, 4-((3,3-Difluoropyrrolidin-1-yl)methyl)-N′-(1,2,3,5,6,7-hexahydro-s-indacen-4-ylcarbamoyl)benzenesulfonimidamide]
0.2 to 1 | CC(C)(O)c1ccc(S(N)(=O)=NC(=O)Nc2c3c(c(F)c4c2CCC4)CCC3)c(F)c1 (stereo not shown) [Example 47, 2-fluoro-N′-(8-fluoro-1,2,3,5,6,7-hexahydro-s-indacen-4-ylcarbamoyl)-4-(2-hydroxypropan-2-yl)benzenesulfonimidamide]
5 to 30 | CNS(=O)(=NC(=O)Nc1c2c(cc3c1CCC3)CCC2)c1cc(C(C)(C)O)cs1 (stereo not shown) [Example 246]
1 to 5 | NS(=O)(=NC(=O)Nc1c2c(cc3c1CCC3)CCC2)c1ccc(CN2CCC2)cc1 (stereo not shown) [Example 237, 4-(Azetidin-1-ylmethyl)-N′-(1,2,3,5,6,7-hexahydro-s-indacen-4-ylcarbamoyl)benzenesulfonimidamide]
5 to 30 | Cn1ncc2cc(S(N)(=O)=NC(=O)Nc3c4c(cc5c3CCC5)CCC4)ccc21 (stereo not shown) [Example 273, N′-(1,2,3,5,6,7-hexahydro-s-indacen-4-ylcarbamoyl)-1-methyl-1H-indazole-5-sulfonimidamide]
0.2 to 1 | CC(C)(C)OC(=O)NS(=O)(=NC(=O)Nc1c2c(cc3c1CCC3)CCC2)c1cnc(C(C)(C)O)s1 (stereo not shown) [Example 7, Tert-butyl N-(1,2,3,5,6,7-hexahydro-s-indacen-4-ylcarbamoyl)-2-(2-hydroxypropan-2-yl)thiazole-5-sulfonimidoylcarbamate]
1 to 5 | COC1CN(Cc2ccc(S(N)(=O)=NC(=O)Nc3c4c(cc5c3CCC5)CCC4)cc2)C1 (single isomer, unassigned) [Example 379, (R) or (S)-N′-((1,2,3,5,6,7-hexahydro-s-indacen-4-yl)carbamoyl)-4-((3-methoxyazetidin-1-yl)methyl)benzene-sulfonimidamide]
0.008 to 0.04 | Cc1oc([S@@](N)(=O)=NC(=O)Nc2c3c(cc4c2CCC4)CCC3)cc1C(C)(C)O [Example 2, (S)—N′-(1,2,3,5,6,7-hexahydro-s-indacen-4-ylcarbamoyl)-4-(2-hydroxypropan-2-yl)-5-methylfuran-2-sulfonimidamide]
0.04 to 0.2 | CC(C)(O)c1cnc(S(N)(=O)=NC(=O)Nc2c3c(cc4c2CCO4)CCC3)s1 (stereo not shown) [Example 257, 5-(2-hydroxypropan-2-yl)-N′-((3,5,6,7-tetrahydro-2H-indeno[5,6-b]furan-4-yl)carbamoyl)thiazole-2-sulfonimidamide]
0.2 to 1 | CC(C)(O)c1ncc(S(N)(=O)=NC(=O)Nc2c3c(cc4c2C(O)CC4)CCC3)s1 (single isomer, unassigned) [Example 370, (R, R/S) or (S, R/S)-N′-((3-hydroxy-1,2,3,5,6,7-hexahydro-s-indacen-4-yl)carbamoyl)-2-(2-hydroxypropan-2-yl)thiazole-5-sulfonimidamide]
0.008 to 0.04 | CC(C)(O)c1cc(F)c(S(N)(=O)=NC(=O)Nc2c3c(cc4c2CC4)CCC3)s1 (stereo not shown) [Example 281, 3-fluoro-5-(2-hydroxypropan-2-yl)-N′-((2,4,5,6-tetrahydro-1H-cyclobuta[f]inden-3-yl)carbamoyl)thiophene-2-sulfonimidamide]
1 to 5 | CC(C)(O)c1cccc(S(N)(=O)=NC(=O)Nc2c3c(c(F)c4c2CCC4)CCC3)c1 (stereo not shown) [Example 34, N′-(8-fluoro-1,2,3,5,6,7-hexahydro-s-indacen-4-ylcarbamoyl)-3-(2-hydroxypropan-2-yl)benzenesulfonimidamide]

Same assay, conditions: Homo sapiens, THP-1, hTHP-1 assay containing 2% fetal bovine serum; average; given as bound; read-out: hTHP-1 IC50 (Average IC50 of compounds in hTHP-1 assay)

SMILES | IC50 [µM]
Cc1cc(NC(=O)N=S(N)(=O)c2ccc(C(C)(C)O)s2)cc(C)n1 (stereo not shown) [compound 78, N-((2,6-dimethylpyridin-4-yl)carbamoyl)-5-(2-hydroxypropan-2-yl)thiophene-2-sulfonimidamide] | > 30
CC(C)c1cc(OC(F)F)cc(C2CC2)c1NC(=O)N=S(N)(=O)c1ccc(CN(C)C)cc1 (single isomer, unassigned) [Example 134, (S)- or (R)-N′-(2-cyclopropyl-4-(difluoromethoxy)-6-isopropylphenylcarbamoyl)-4-((dimethylamino)methyl)benzenesulfonimidamide] | > 30
Cc1cc(NC(=O)N=S(N)(=O)c2cc(C)c(C(C)(C)O)s2)cc(C)n1 (stereo not shown) [Example 9, N′-((2,6-dimethylpyridin-4-yl)carbamoyl)-4-methyl-5-(2-hydroxypropan-2-yl)thiophene-2-sulfonimidamide] | > 30
CC(C)c1cc(F)cc(C(C)C)c1NC(=O)N=S(N)(=O)c1ccc2ccccc2c1 (stereo not shown) [Example 210, N′-((4-fluoro-2,6-diisopropylphenyl)carbamoyl)naphthalene-2-sulfonimidamide] | > 30

Further lines, results first:

IC50 [µM] | SMILES
> 30 | COCCN(C)Cc1ccc(S(N)(=O)=NC(=O)Nc2c3c(cc4c2CCC4)CCC3)cc1 (single isomer, unassigned) [Example 389, (S) or (R)-N′-((1,2,3,5,6,7-hexahydro-s-indacen-4-yl)carbamoyl)-4-(((2-methoxyethyl)(meth-yl)amino)methyl)benzene-sulfonimidamide]
> 30 | CC(C)c1cc(F)cc(C(C)C)c1NC(=O)N=S(N)(=O)c1ccc(C(C)(C)O)cc1 (single isomer, unassigned) [Example 84, (R)- or (S)-N′-(4-fluoro-2,6-diisopropylphenylcarbamoyl)-4-(2-hydroxypropan-2-yl)benzenesulfonimidamide]
> 30 | COC1CN(Cc2ccc(S(N)(=O)=NC(=O)Nc3c4c(cc5c3CCC5)CCC4)cc2)C1 (single isomer, unassigned) [Example 380, (S) or (R)-N′-((1,2,3,5,6,7-hexahydro-s-indacen-4-yl)carbamoyl)-4-((3-methoxyazetidin-1-yl)methyl)benzene-sulfonimidamide]

Same assay, conditions: Homo sapiens, THP-1, hTHP-1 assay containing 2% fetal bovine serum; average; numeric bound printed without unit; read-out: hTHP-1 IC50 (Average IC50 of compounds in hTHP-1 assay)

IC50 [µM] | SMILES
> 28.4 | CCc1ccc2cn[nH]c2c1NC(=O)N=S(N)(=O)c1cnc(C(C)(C)O)s1 (single isomer, unassigned) [Example 325, (S) or (R)-N′-((6-ethyl-1H-indazol-7-yl)carbamoyl)-2-(2-hydroxypropan-2-yl)thiazole-5-sulfonimidamide]

Same assay, conditions: hTHP-1 assay containing 2% fetal bovine serum; average; class symbols; read-out: hTHP-1 IC50 (Average IC50 of compounds in hTHP-1 assay)

IC50 [µM] | SMILES
1 to 5 | CC(C)(O)c1ncc(S(N)(=O)=NC(=O)Nc2c3c(cc4c2CCC4O)CCC3)s1 (single isomer, unassigned) [Example 339, (S, S) or (S, R)-N′-((l-hydroxy-1,2,3,5,6,7-hexahydro-s-indacen-4-yl)carbamoyl)-2-(2-hydroxypropan-2-yl)thiazole-5-sulfonimidamide]

Source: US10654816B2, “Compounds and compositions for treating conditions associated with NLRP activity” (NOVARTIS INFLAMMASOME RESEARCH, INC., priority 2017, dated 2020)
